From US20200268711A1, “Use Of Carbamate Compound For Reducing Or Treating Developmental Disorders Including Fragile X Syndrome, Angelman Syndrome Or Rett Syndrome” (SK BIOPHARMACEUTICALS CO., LTD., priority 2017, published 2020)

Experiments:
Assay type in all cases: in vivo
[1] = test system: Fmr1 gene-deficient mouse; experiment: Audiogenic seizure test in Fmr1 gene-deficient mouse model; conditions: for Percent seized / Percent survival / Time to seizure occurrence / Time to respiratory arrest: 30 minutes before the test; for Time to seizure occurrence: 135 dB sound, 300 seconds if seizure does not occur; for Time to respiratory arrest: 300 seconds if mouse survives without respiratory arrest; for Median seizure score (seizure intensity level): compared to the vehicle administration group, score 0-5
Method: (§1) Male FVB.129P2-Pde6b^+ Tyr^c-ch Fmr1^tm1Cgr/J gene-deficient mice were purchased from Jackson Laboratories, and audiogenic seizure experiments were performed at 3 weeks of age. After purchase, the experimental animals were maintained under a controlled lighting environment (12 hours lighting/12 hours non-lighting) and maintained at a temperature of 20-23° C. and about 50% relative humidity. Food and water were provided ad libitum. Mice were randomly divided into groups. The test was carried out under lighting.
MPEP (2-methyl-6-(phenylethynyl)pyridine) HCl was used as a positive control, dissolved in sterile injectable saline, and administered intraperitoneally at a dose of 30 mg/kg. MPEP was prepared at a volume of 10 ml/kg and administered 30 minutes before the test.
Test Compound was dissolved in 30% PEG 300, and two doses of 10 mg/kg and 20 mg/kg were used, Test Compound was prepared at a volume of 10 ml/kg and administered intraperitoneally 30 minutes before the test. As a negative control, a vehicle (30% PEG 300) was administered.
Vehicle, MPEP or Test Compound was administered to mice of 21 days of age 30 minutes before the test. Mice were placed in a Plexiglas chamber for 15 seconds and exposed to 135 decibels (dB) of sound. During the test for 5 minutes, the mice were scored as following criteria based on the reaction of the mouse, the time required until the reaction and the intensity of the seizure.
1: Wild running and jumping
The following endpoints were measured and observed, and in the case of animals that had no reaction, the time to reaction was set to 300 seconds for convenience in analysis.
2. Time to respiratory arrest (300 seconds if mouse survives without respiratory arrest)
Data were analyzed by ANOVA, and if appropriate, Fisher PLSD post-hoc analysis was performed. The average seizure intensity was analyzed non-parametrically. The effect was defined as significant when p<0.05. Results are represented as mean values ±standard error.

[2] = test system: Fmr1 gene-deficient mouse; experiment: Fear conditioning test (contextual and cued) in Fmr1 gene-deficient mouse model; conditions: day 6; for Freezing during contextual fear conditioning test: in comparison with the vehicle administration group
Method: as §1, with “Laboratories.” for “Laboratories, and audiogenic seizure experiments were performed at 3 weeks of age.”, “The drugs were administered once a day for 6 days at 8 weeks of age. The” for “The”
(§2) Test Compound was dissolved in 30% PEG 300, and two doses of 10 mg/kg and 20 mg/kg were used. Test Compound was prepared at a volume of 10 ml/kg and administered intraperitoneally 30 minutes before the test.
2. Fear conditioning test: On day 5 and day 6 of administration, and 30 minutes after administration, training and drug efficacy tests were carried out, respectively. The test was performed using a fear conditioning system manufactured by Coulbourn Instruments (PA, USA).
Training was done 30 minutes after administration on day 5 of administration. The mice were placed in a conditioning chamber and accustomed to the environment for 120 seconds, and then exposed to 6 kHz, 75 dB sound stimulus (conditioned stimulus) for 20 seconds. 30 seconds after the end of the conditioned stimulation, 0.5 mA electrostimulation shock (unconditioned stimulus) was applied to the mouse paws. Mice were left in the conditioning chamber for an additional 60 seconds and then returned to the original cage.
On the morning of day 6, 30 minutes after administration mice were placed in the same chamber as the previous day, and then trained for 5 minutes without shock or other obstructions in order to perform a drug efficacy test for contextual memory. On day 6, after 4 hours of the contextual conditioning test, a drug efficacy test was performed on cued memory by stimulus signals. The mice were exposed to a new environment for 2 minutes (before the stimulation signal), and conditions and stimulation were applied three times in total for 20 seconds. Freezing behavior was defined as the complete loss of movement and was captured using a video system and FreezeView software (Coulbourn Instrument Penn., USA). The chamber was cleaned with 70% ethanol with each mouse change.
The data were analyzed by ANOVA, and if appropriate, Fisher PLSD post-hoc analysis was performed using Statview software. The effect was defined as significant when p<0.05. Results are represented as mean values ±standard error.

[3] = test system: Fmr1 gene-deficient mouse; experiment: Open field test (locomotor activity, rearing) in Fmr1 gene-deficient mouse model; conditions: 20 mg/kg i.p. once a day, day 4 of administration; 60 minutes; in comparison with the vehicle administration group
Method: as §1, with “Laboratories.” for “Laboratories, and audiogenic seizure experiments were performed at 3 weeks of age.”, “The drugs were administered once a day for 6 days at 8 weeks of age. The” for “The”
as §2
1. Locomotor activity: Locomotor activity test was performed on day 4 of administration in the course of administering daily for 6 days in 8-week-old mice.
A Plexiglas square chamber (27.3×27.3×20.3 cm) surrounded by infrared rays was used to measure the horizontal and vertical movements. Mice were acclimatized to the laboratory for at least 1 hour before the test and then placed in the center of the chamber to measure activity in the open field for 1 hour. […] The distance was measured by the breakage of the horizontal light beam by the movement of the mouse. […]
The data were analyzed by ANOVA, and if appropriate, Fisher PLSD post-hoc analysis was performed using Statview software. […]

[4] = 20 mg/kg i.p. once a day, compared with the vehicle administration group

NC(=O)O[C@@H](Cn1ncnn1)c1ccccc1Cl [Test Compound, Carbamic acid (R)-1-(2-chlorophenyl)-2-tetrazol-2-yl-ethyl ester]
Percent seized ([1]; 10 mg/kg i.p.): No seizures occurred | Percent survival ([1]; 10 mg/kg i.p.): 100% | Time to seizure occurrence ([1]; 10 mg/kg i.p.): 300 s | Time to respiratory arrest ([1]; 10 mg/kg i.p.): 300 s | Median seizure score (seizure intensity level) ([1]; 10 mg/kg i.p.): significantly reduced | Percent seized ([1]; 20 mg/kg i.p.): No seizures occurred | Percent survival ([1]; 20 mg/kg i.p.): 100% | Time to seizure occurrence ([1]; 20 mg/kg i.p.): 300 s | Time to respiratory arrest ([1]; 20 mg/kg i.p.): 300 s | Median seizure score (seizure intensity level) ([1]; 20 mg/kg i.p.): significantly reduced | Rate of freezing in cue test, while the stimulus signal was given ([2]; 10 mg/kg i.p. once a day, compared with the vehicle administration group): significantly increased | Freezing during contextual fear conditioning test ([2]; 10 mg/kg i.p. once a day): significantly increased | Freezing in cue test, after the stimulus signal [2, 4]: significant increase | Rate of freezing in cue test, while the stimulus signal was given [2, 4]: significantly increased | Freezing during contextual fear conditioning test ([2]; 20 mg/kg i.p. once a day): significantly increased | Locomotor activity (total distance traveled) [3]: significantly decreased | Rearing activity [3]: decreased

Cc1cccc(C#Cc2ccccc2)n1 [MPEP, 2-methyl-6-(phenylethynyl)pyridine, reference compound]
Percent seized ([1]; 30 mg/kg i.p.): No seizures occurred | Percent survival ([1]; 30 mg/kg i.p.): 100% | Time to seizure occurrence ([1]; 30 mg/kg i.p.): 300 s | Time to respiratory arrest ([1]; 30 mg/kg i.p.): 300 s | Median seizure score (seizure intensity level) ([1]; 30 mg/kg i.p.): significantly reduced
